Data reported in ChEMBL document CHEMBL1144758, “Semisynthetic studies on the manzamine alkaloids” (J Nat Prod, 2008).
pIC50: −log10 of the molar value. Values after ≈ are worked out from the molar mass of the structure shown. Active and inactive are the calls of the source. No cut-off for these calls is given here.

Experiments:
Microglia [1] = experiment: Antiinflammatory activity in Escherichia coli lipopolysaccharide-activated rat neonatal microglia assessed as inhibition of oxygen radical at 30 uM; format: functional
Microglia [2] = experiment: Antiinflammatory activity in Escherichia coli lipopolysaccharide-activated rat neonatal microglia assessed as inhibition of eicosanoid thromboxane B2 at 30 uM; format: functional, cell-based
[3] = system: Mycobacterium tuberculosis; experiment: Antibacterial activity against Mycobacterium tuberculosis H37Rv by microplate alamar blue assay; format: functional; parameters: Activity: concentration or dose not given beside the values; details: for MIC: Mycobacterium tuberculosis, H37Rv
[4] = system: Mycobacterium tuberculosis; experiment: Antibacterial activity against Mycobacterium tuberculosis H37Rv at 0.5 ug/mL by microplate alamar blue assay; format: functional
P388 = experiment: Cytotoxicity against mouse P388 cells; format: functional, cell-based
[5] = Antiinflammatory activity in Escherichia coli lipopolysaccharide-activated rat neonatal microglia assessed as inhibition of eicosanoid thromboxane B2; format: functional, cell-based
Microglia [6] = experiment: Antiinflammatory activity in Escherichia coli lipopolysaccharide-activated rat neonatal microglia assessed as inhibition of oxygen radical; format: functional, cell-based

| SMILES | Activity (Microglia [1]) | Activity (Microglia [2]) | Activity [3] [%] | MIC [3] [µg/mL] | Activity [4] [%] | IC50 (P388) [µg/mL] | pIC50 [5] | Activity (Microglia [6]) |
| --- | --- | --- | --- | --- | --- | --- | --- | --- |
| Oc1cccc2c1[nH]c1c(C3=C[C@@]4(O)CCCCCCCCN5CC[C@@H]3[C@]3(C[C@@H]6CCCCCCN6[C@H]34)C5)nccc12 [15,16,32,33-TETRAHYDRO-8-HYDROXYMANZAMINE A] | inactive | inactive | 95 | < 12.5 |  |  |  |  |
| CO[C@H]1/C=C/O[C@@]2(C)Oc3c(C)c(O)c4c(O)c(c(/C=N/N5CCN(C)CC5)c(O)c4c3C2=O)NC(=O)/C(C)=C\C=C\[C@H](C)[C@H](O)[C@@H](C)[C@@H](O)[C@@H](C)[C@H](OC(C)=O)[C@@H]1C [RIFAMPIN] |  |  |  |  | 100 |  |  |  |
| CC(=O)Oc1cccc2c1[nH]c1c([C@@H]3C=C4CC/C=C\CCCCN5CC[C@H]3[C@]3(C5)C(C(C)=O)=C5/C(C(C)=O)=C\CCCCN5[C@H]43)nccc12 | inactive | inactive | 95 | < 12.5 |  |  |  |  |
| O[C@]12C=C(c3nccc4c3[nH]c3ccccc34)[C@@H]3CCN(CCCC/C=C\CC1)C[C@@]31C[C@@H]3CCCCCCN3[C@H]12 [32,33-DIHYDROMANZAMINE A] | inactive | inactive | 95 | < 12.5 |  |  |  |  |
| Oc1cccc2c1[nH]c1c(C3=C[C@@]4(O)CC/C=C\CCCCN5CC[C@@H]3[C@]3(CC6/C=C\CCCCN6[C@H]34)C5)nccc12 (some centres undefined) | inactive | inactive | 100 | < 6.25 |  | > 20 |  |  |
| CC(=O)O/C(C)=C1\C[C@@H](OC(C)=O)CCCN2C1=C(C(C)=O)[C@@]13CN4CCCC/C=C\CCC(=C[C@@H](c5nccc6c5[nH]c5c(OC(C)=O)cccc56)[C@H]1CC4)[C@@H]23 | inactive | inactive | 95 | < 12.5 |  |  |  |  |
| CC(=O)C1=C2/C=C\CCCCN2[C@H]2C3=C[C@H](c4nccc5c4[nH]c4ccccc45)[C@@H]4CCN(CCCC/C=C\CC3)C[C@]124 | inactive | inactive |  |  |  |  |  |  |
| Oc1cccc2c1[nH]c1c([C@H]3C[C@@]4(O)CCCCCCCCN5CC[C@@H]3[C@]3(C[C@@H]6CCCCCCN6[C@@H]43)C5)nccc12 [10,11,15,16,32,33-HEXAHYDRO-8-HYDROXYMANZAMINE A] |  |  | 95 | < 12.5 |  |  | 5.71 | inactive |
| O[C@]12C=C(c3nccc4c3[nH]c3ccccc34)[C@@H]3CCN(CCCC/C=C\CC1)C[C@@]31C[C@@H]3/C=C\CCCCN3[C@H]12 [MANZAMINE A] |  |  | 95 | < 12.5 |  |  | > 7.00 | inactive |
| O[C@]12C=C(c3nccc4c3[nH]c3ccccc34)[C@@H]3CCN(CCCCCCCC1)C[C@@]31C[C@@H]3CCCCCCN3[C@H]12 [TETRAHYDROMANZAMINE A] | inactive | inactive | 95 | < 12.5 |  |  |  |  |
| O=C1CCCN2[C@@H](CC1)C[C@]13CN4CCCC/C=C\CC[C@](O)(C=C(c5nccc6c5[nH]c5c(O)cccc56)C1CC4)[C@H]23 (some centres undefined) [MANZAMINE F] | inactive | inactive | 95 | < 12.5 |  |  |  |  |
| Oc1cccc2c1[nH]c1c(C3=C[C@]4(O)CC/C=C\CCCCN5CC[C@H]3[C@@]3(C[C@H]6/C=C\CCCCN6[C@@H]34)C5)nccc12 [ENT-8-HYDROXYMENZAMINE A] |  |  | 95 | < 12.5 |  | 0.25 (≈ 0.443 µM) | 6.60 | inactive |
| CC(=O)Oc1cccc2c1[nH]c1c([C@@H]3C=C4CC/C=C\CCCCN5CC[C@H]3[C@]3(C5)C(C(C)=O)=C5/C=C\CCCCN5[C@H]43)nccc12 | inactive | inactive | 95 | < 12.5 |  |  |  |  |
| Oc1cccc2c1[nH]c1c(C3=C[C@]4(O)CC/C=C\CCCCN5CC[C@H]3[C@@]3(C[C@H]6CC[C@H](O)CCCN6[C@@H]34)C5)nccc12 [31BETA-HYDROXY-32,33-DIHYDRO-8-HYDROXYMANZAMINE A] | inactive | inactive | 100 | < 6.25 |  |  |  |  |
| O[C@@H]1CCCN2CC[C@@H]1O[C@@]13CC[C@@H](OC[C@]45CN6CCCC/C=C\CC[C@](O)(C=C(c7nccc8c7[nH]c7ccccc78)[C@@H]4CC6)[C@H]25)[C@@H](O)CCN1[C@@H]1[C@]2(CN4CCCC/C=C\CC[C@]1(O)C=C(c1nccc5c1[nH]c1ccccc15)[C@@H]2CC4)C3 [NEO-KAULUAMINE] |  |  | 44 |  |  |  |  |  |
| CC(=O)Oc1cccc2c1[nH]c1c(C3=C[C@]4(OC(C)=O)CC/C=C\CCCCN5CC[C@H]3[C@@]3(C[C@H]6/C=C\CCCCN6[C@@H]34)C5)nccc12 | inactive | inactive | 95 | < 12.5 |  |  |  |  |
| Oc1cccc2c1[nH]c1c(C3=C[C@]4(O)CC/C=C\CCCCN5CC[C@H]3[C@@]3(C[C@H]6CC[C@@H](O)CCCN6[C@@H]34)C5)nccc12 [31ALPHA-HYDROXY-32,33-DIHYDRO-8-HYDROXYMANZAMINE A] | inactive | inactive | 61 |  |  |  |  |  |
| CC(=O)C1=C2/C(C(C)=O)=C\CCCCN2[C@H]2C3=C[C@H](c4nccc5c4[nH]c4ccccc45)[C@@H]4CCN(CCCC/C=C\CC3)C[C@]124 | inactive | inactive | 95 | < 12.5 |  |  |  |  |
| Oc1cccc2c1[nH]c1c(C3=C[C@]4(O)CCCCCCCCN5CC[C@H]3[C@@]3(C[C@H]6CCCCCCN6[C@@H]34)C5)nccc12 | inactive | inactive | 95 | < 12.5 |  |  |  |  |
